Experimental data reported in PubChem BioAssay AID602296 (Broad Institute, 2012).
Results filed as inconclusive are left out. Calls of active or inactive are those of the source.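 The calls were made as follows: active = fitted activation curve crossing 40% at a concentration no higher than the sample's top valid tested dose; inconclusive = flat fitted curve at 30% to 70% activation, or poor curve fit; inactive = signal decrease, flat curve within 30%, or the rest.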

test system: NIH3T3-HGL HSF-1 response element luciferase, 48 h; experiment: HSF-1 reporter activators over prolonged exposure, confirmation, cell-based, mouse, luciferase, cherry-pick, dose (AID 602296);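 also: test compounds applied by themselves with no MG132 co-treatment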

| SMILES | AC40 |
| --- | --- |
| OCC1(CCCc2ccccc2)CCN(C2CCSCC2)CC1 | > 26 µM (inactive) |
| CC(C)(C)NC(=O)NC(=O)CN1CC=C(c2ccccc2)CC1 | > 26 µM (inactive) |
| Cc1ccc(C(=O)OCC(=O)c2ccc(Cl)s2)s1 | 15.1 µM |
| CCOc1cccc(/C=C/c2ccc3cccc(O)c3n2)c1OC | > 26 µM (inactive) |
| Cc1cccc(CN(C(=S)Nc2c(C)cccc2C)c2cccnc2)c1 | 24.7 µM |
| O=C(CSc1nnc(-c2c[nH]c3ccccc23)n1-c1ccc(F)cc1)NCc1ccco1 | 13.5 µM |
| CCN(C(=O)c1cc2c(=O)[nH]c3ccc(C)cc3c2s1)c1ccccc1F | > 26 µM (inactive) |
| COc1cccc(NC(=O)CSc2nc(N)cc(N)n2)c1 | > 26 µM (inactive) |
| CCOC(=O)c1c(-c2ccc(C)o2)csc1NC(=O)CSc1nncs1 | 13.6 µM |
| C#CC[N+]1(CC#Cc2ccccc2)CCCCC1 | > 26 µM (inactive) |
| Cc1nn(C(CC(=O)O)C(=O)O)c(C)c1Br (centres undefined) | > 26 µM (inactive) |
| O=C(CCCC1=NS(=O)(=O)c2ccccc2N1)N1CCN(c2ccccc2)CC1 | > 26 µM (inactive) |
| COc1cccc(-c2nn(-c3ccccc3)cc2C(=O)n2nnc3ccccc32)c1 | > 26 µM (inactive) |
| COc1ccc2nc(SC)c(C#N)cc2c1 | > 26 µM (inactive) |
| COC(=O)[C@@H](Cc1c[nH]c2ccccc12)NC(=O)c1ccc2c(c1)OCO2 | 3.28 µM |
| CCc1cccc(NC(=O)c2cccc(S(=O)(=O)N3CCN(C)CC3)c2)c1 | > 26 µM (inactive) |
| CCOP(=O)(C(NC(=O)c1ccccc1Cl)=C(Cl)Cl)c1ccccc1 (centres undefined) | > 26 µM (inactive) |
| CCc1cc(C(c2ccccc2OC)N2CCOCC2)c(NC(=O)c2ccccc2)s1 (centres undefined) | > 26 µM (inactive) |
| Cc1nc2ccc(Br)cc2c(=O)n1Cc1cccs1 | > 26 µM (inactive) |
| N#Cc1ccc(Cl)cc1NC(=O)CNCc1cccs1 | > 26 µM (inactive) |
| Nc1c(-c2ccsc2)cnc2ncnn12 | > 26 µM (inactive) |
| Cc1nc(-c2ccc(Cl)cc2)sc1C(=O)CBr | 11.5 µM |
| COc1cc2[nH]c(=S)n(Cc3ccco3)c(=O)c2cc1OC | > 26 µM (inactive) |
| C=CCN(C(=O)CCC(=O)Nc1cc(C)on1)C(C(=O)NC(C)(C)C)c1cccc(OC)c1OC (centres undefined) | > 26 µM (inactive) |
| Cc1ccc(C(=O)NC(=C(Cl)Cl)S(=O)(=O)c2ccc(Cl)cc2)cc1 | 8.29 µM |
| Oc1ccc(NC(=S)Nc2ccccc2)cc1 | > 26 µM (inactive) |
| CN(C)C(CNC(=O)CCC(=O)c1ccc(Br)cc1)c1ccccc1 (centres undefined) | > 26 µM (inactive) |

| SMILES | AC40 |
| --- | --- |
| Cc1cc(C)n(CC(O)COc2ccc(Cl)cc2Cl)n1 (centres undefined) | 5.12 µM |
| CC(CC#CCN1CCOCC1)OCCC#N (centres undefined) | > 26 µM (inactive) |
| ON=C1c2ccccc2-c2ccccc21 | 15.8 µM |
| CN(Cc1nnc(-c2ccc(F)cc2)o1)c1ccccc1 | 9.33 µM |
| COc1ccc(/C=C(\C#N)C(=O)Nc2cccc(C)n2)cc1 | > 26 µM (inactive) |
| COc1ccc2c(c1OC)C(=O)OC2Nc1nc(-c2ccccc2)cs1 (centres undefined) | > 26 µM (inactive) |
| C=CCn1c(-c2cc(-c3ccccc3)sc2N)n[nH]c1=S | 12.3 µM |
| Cc1ccc(NN2C(=O)C=C(c3ccccc3)C2=O)cc1 | 7.33 µM |
| C=CCOc1ccc(-c2nc3c(c(=O)[nH]c(=O)n3Cc3ccccc3)n2CCCOC)cc1 | > 26 µM (inactive) |
| COc1cc2c(cc1NC(=O)COC(=O)[C@@H](NS(=O)(=O)c1ccccc1)C(C)C)oc1ccccc12 | > 26 µM (inactive) |
| COc1cc(/C=N/N2C(=O)c3ccccc3NC2(C)c2cccc([N+](=O)[O-])c2)cc(Br)c1O (centres undefined) | > 26 µM (inactive) |
| CC(C)C(=O)N1CCC(n2nccc2NC(=O)CCOc2ccccc2)CC1 | 7.78 µM |
| CC1(C)CC(=O)C2=C(C1)OC(N)=C(C#N)C2C#Cc1ccccc1 (centres undefined) | 10.4 µM |
| Cc1sc2nc(C)n(/N=C/c3ccc(O)cc3O)c(=O)c2c1C | > 26 µM (inactive) |
| COC(=O)/C=C1/N/C(=N\c2nc(C)cc(C)n2)N(c2ccc(C)c(C)c2)C1=O | > 26 µM (inactive) |
| O=C1/C(=C/c2ccc([N+](=O)[O-])cc2)Oc2cc(O)ccc21 | > 26 µM (inactive) |
| O=C(CSc1nccn(-c2ccc(F)c(F)c2)c1=O)NC1CCCC1 | > 26 µM (inactive) |
| C[C@]12CC[C@@H]3c4cc(O)c(O)cc4CC[C@H]3[C@@H]1CC[C@@H]2O | 25.2 µM |
| COc1ccc(-c2c(C)c3cc(O)ccc3oc2=O)cc1OC | > 26 µM (inactive) |
| Cn1c(=O)c(/C=C/c2ccc(F)cc2)nc2ccccc21 | 1.99 µM |
| Cn1c(C(=O)OC(C(=O)NC(C)(C)C)c2cccnc2)cc2sccc21 (centres undefined) | > 26 µM (inactive) |
| CCC1(C)N=C(N)Nc2nc3cc(C)c(C)cc3n21 (centres undefined) | 24.5 µM |
| CCOc1ncccc1C(=O)NCCc1c[nH]c2ccccc12 | > 26 µM (inactive) |
| Cc1[nH]n(-c2ccccc2)c(=O)c1C=NCCc1ccccc1 | 9.52 µM |
| Cc1ccc(CNc2c(C=O)c(=O)[nH]c3ccccc23)cc1 | > 26 µM (inactive) |
| CCC1CCCCN1C(=O)COC(=O)c1cc2ccccc2cc1O (centres undefined) | > 26 µM (inactive) |
| Cc1cccc(NCc2nc3ccccc3n2C)c1 | 1.61 µM |

| SMILES | AC40 |
| --- | --- |
| O=C(O)C(Cc1ccccc1)N1C(=O)c2c(Cl)c(Cl)c(Cl)c(Cl)c2C1=O (centres undefined) | > 12 µM (inactive) |
| c1ccc(CCc2ccncc2)cc1 | > 26 µM (inactive) |
| Cc1cc2c(cc1C)-c1nnnn1C(C)(C)C2 | > 26 µM (inactive) |
| Cc1ccc(O)c(CNc2nccs2)c1 | 24.5 µM |
| Cc1noc(NS(=O)(=O)c2ccc(NC(=O)c3oc4ccc(F)cc4c3C)cc2)c1C | > 26 µM (inactive) |
| Cc1ccc(/C=C2/NC(=O)N(Cc3ccc(Br)cc3)C2=O)o1 | > 26 µM (inactive) |
| S=C(Nc1ccccc1)Nc1ccc(Cl)cn1 | 21 µM |
| COc1ccc(C2C3=C(CCCC3=O)N(CC(=O)O)C3=C2C(=O)CCC3)cc1Cl | > 26 µM (inactive) |
| O=C1CCCN2N=C(SCC(=O)Nc3ccc(Br)cc3)SC2=N1 | > 26 µM (inactive) |
| COc1cccc(-c2nnc(SCc3nc4ccccc4[nH]3)n2N)c1 | 18.6 µM |
| COc1cc(OC)c(OC)cc1CN(C)CCc1ccccn1 | 25.8 µM |
| CC1(c2cccs2)CC(c2cccs2)=C(C#N)C(=O)N1 (centres undefined) | > 26 µM (inactive) |
| CC[C@@]1(O)C(=O)OCc2c1cc1n(c2=O)Cc2cc3c(N)cccc3nc2-1 | 15.9 µM |
| Cn1ncc(Br)c1C(=O)N1CCOCC1 | > 26 µM (inactive) |
| CC1CCCCN1C(=O)COc1ccccc1F (centres undefined) | 21.2 µM |
| CN(CCC1CCCCO1)C(=O)CCc1nnc(CCCCc2ccccc2)o1 (centres undefined) | 5.66 µM |
| O=C1c2cccc3c([N+](=O)[O-])ccc(c23)C(=O)N1O | > 26 µM (inactive) |
| CCOC(=O)CN1C=C(c2ccc3ccccc3n2)C(C[N+](=O)[O-])c2ccccc21 (centres undefined) | 3.31 µM |
| Cn1cc(C(=O)N/N=C/c2cc(Br)cs2)c2ccccc21 | 11.3 µM |
| Cc1ccc(CC2SC(N=C(N)N)=NC2=O)cc1 (centres undefined) | > 26 µM (inactive) |
| O=C1Nc2ccccc2/C1=C/c1cnc[nH]1 | > 26 µM (inactive) |
| CC(C)n1cc(/C=N/NC(=O)COc2cccc3cccnc23)c2ccccc21 | > 26 µM (inactive) |
| CCCSc1nnc2n(-c3ccccc3OC)c(=O)c3c4c(sc3n12)CCC4 | > 26 µM (inactive) |
| Cc1ccc(CN2CCN(CC(C)C)C(CCO)C2)s1 (centres undefined) | 1.66 µM |
| O=C(Cc1cccs1)NCc1ccccc1Br | 1.77 µM |
